Active and inactive are the calls of the source. No cut-off for these calls is given here.
Experiments:
[1] = system: HCT-116; assay: Effect on DNA-PKcs protein level in human HCT-116 cells at 1 uM in presence of SN-38 by Western blot analysis; format: functional, cell-based
[2] = system: HCT-116; assay: Synergistic antiproliferative activity against human HCT-116 cells assessed as combination index at 0.5 uM measured after 72 hrs in presence of 0.625 nM of SN-38 by CCK-8 method; format: functional
[3] = system: HCT-116; assay: Antagonistic antiproliferative activity against human HCT-116 cells assessed as combination index at 1 uM measured after 72 hrs in presence of 0.625 nM of SN-38 by CCK-8 method; format: functional
[4] = system: HCT-116; assay: Synergistic antiproliferative activity against human HCT-116 cells assessed as combination index at 1 uM measured after 72 hrs in presence of 5 nM of SN-38 by CCK-8 method; format: functional
[5] = target: Protein cereblon/Poly [ADP-ribose] polymerase 2 (Homo sapiens, UniProt Q9UGN5+Q96SW2); assay: PROTAC activity at CRBN/PARP2 in human HCT-116 cells assessed as maximum degradation of PARP2 relative to control; format: cell-based
Protein cereblon/Poly [ADP-ribose] polymerase 2, sequence (Q96SW2 whole entry, looked up): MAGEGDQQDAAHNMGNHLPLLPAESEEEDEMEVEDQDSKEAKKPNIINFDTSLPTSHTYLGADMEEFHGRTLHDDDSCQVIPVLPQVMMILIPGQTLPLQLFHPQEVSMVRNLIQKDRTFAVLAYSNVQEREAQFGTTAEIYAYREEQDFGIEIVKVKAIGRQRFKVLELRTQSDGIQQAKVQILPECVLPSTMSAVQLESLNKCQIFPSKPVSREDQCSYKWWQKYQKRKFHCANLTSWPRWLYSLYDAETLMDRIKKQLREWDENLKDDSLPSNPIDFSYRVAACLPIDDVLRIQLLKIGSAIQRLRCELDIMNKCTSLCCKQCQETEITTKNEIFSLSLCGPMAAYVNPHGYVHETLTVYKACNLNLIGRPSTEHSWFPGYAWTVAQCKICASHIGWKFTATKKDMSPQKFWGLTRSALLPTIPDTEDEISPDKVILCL
Protein cereblon/Poly [ADP-ribose] polymerase 2, sequence (Q9UGN5 whole entry, looked up): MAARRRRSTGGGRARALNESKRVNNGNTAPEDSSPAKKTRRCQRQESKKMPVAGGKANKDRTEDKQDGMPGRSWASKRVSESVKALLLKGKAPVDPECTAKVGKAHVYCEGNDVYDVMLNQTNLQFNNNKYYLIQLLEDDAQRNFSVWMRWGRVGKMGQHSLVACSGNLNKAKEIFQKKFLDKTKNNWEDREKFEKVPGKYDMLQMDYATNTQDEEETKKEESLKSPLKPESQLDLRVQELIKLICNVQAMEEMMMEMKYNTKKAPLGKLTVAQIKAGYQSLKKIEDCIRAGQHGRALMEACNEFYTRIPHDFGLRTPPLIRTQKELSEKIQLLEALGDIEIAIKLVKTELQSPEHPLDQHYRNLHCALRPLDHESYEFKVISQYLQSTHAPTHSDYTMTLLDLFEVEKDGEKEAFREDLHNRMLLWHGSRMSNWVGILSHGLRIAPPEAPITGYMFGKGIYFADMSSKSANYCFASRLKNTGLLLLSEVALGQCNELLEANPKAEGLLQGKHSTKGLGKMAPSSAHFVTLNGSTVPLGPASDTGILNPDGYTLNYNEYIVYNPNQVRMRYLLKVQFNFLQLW

[6] = target: T1, Protein cereblon/Poly [ADP-ribose] polymerase 1 (Homo sapiens, UniProt P09874+Q96SW2); assay: PROTAC activity at CRBN/PARP1 in human HCT-116 cells assessed as degradation of PARP1 at 1 uM in presence of MLN4924; format: cell-based
Target sequence in this assay (P09874 2-1014 limits assumed): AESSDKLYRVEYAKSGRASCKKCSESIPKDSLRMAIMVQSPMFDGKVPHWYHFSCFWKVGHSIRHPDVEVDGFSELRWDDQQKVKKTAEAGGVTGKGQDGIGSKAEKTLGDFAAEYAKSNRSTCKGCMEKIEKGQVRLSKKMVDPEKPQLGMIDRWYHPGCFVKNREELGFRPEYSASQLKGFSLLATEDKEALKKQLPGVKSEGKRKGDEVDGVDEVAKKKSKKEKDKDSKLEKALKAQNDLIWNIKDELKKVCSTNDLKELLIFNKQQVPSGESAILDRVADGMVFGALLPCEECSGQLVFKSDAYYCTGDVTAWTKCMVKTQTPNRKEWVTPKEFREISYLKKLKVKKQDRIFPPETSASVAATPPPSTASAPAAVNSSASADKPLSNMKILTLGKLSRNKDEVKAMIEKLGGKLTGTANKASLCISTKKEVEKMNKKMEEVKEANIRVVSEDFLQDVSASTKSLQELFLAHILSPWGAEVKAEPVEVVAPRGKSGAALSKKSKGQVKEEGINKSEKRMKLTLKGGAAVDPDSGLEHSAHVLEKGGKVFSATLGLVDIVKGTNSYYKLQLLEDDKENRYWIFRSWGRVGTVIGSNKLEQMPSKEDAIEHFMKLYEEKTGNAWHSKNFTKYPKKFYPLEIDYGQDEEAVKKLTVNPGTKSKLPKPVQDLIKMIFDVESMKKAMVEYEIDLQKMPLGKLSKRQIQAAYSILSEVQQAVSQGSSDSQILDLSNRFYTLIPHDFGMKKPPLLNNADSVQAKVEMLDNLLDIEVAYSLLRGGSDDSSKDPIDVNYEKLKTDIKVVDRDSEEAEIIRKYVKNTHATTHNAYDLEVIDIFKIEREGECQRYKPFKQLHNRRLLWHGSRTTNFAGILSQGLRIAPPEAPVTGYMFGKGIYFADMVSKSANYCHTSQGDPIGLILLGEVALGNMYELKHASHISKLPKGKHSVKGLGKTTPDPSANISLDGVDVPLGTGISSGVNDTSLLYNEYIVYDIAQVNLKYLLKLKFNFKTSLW
Target sequence in this assay (Q96SW2 whole entry partner): as the sequence (Q96SW2 whole entry, looked up) above

[7] = system: HCT-116; assay: Induction of apoptosis in human HCT-116 cells assessed as viable cells at 1 uM measured after 72 hrs by annexin V/FITC and PI staining based flow cytometry analysis (reference value: 89.6%); format: functional; conditions: read-out: Activity
[8] = system: HCT-116; assay: Induction of apoptosis in human HCT-116 cells assessed as early apoptotic cells at 1 uM measured after 72 hrs by annexin V/FITC and PI staining based flow cytometry analysis (reference value: 3.43%); format: functional
[9] = Cytotoxicity against human BEAS-2B cells assessed as inhibition of cell growth measured after 72 hrs by CCK-8 method; format: toxicity, cell-based
[10] = system: HCT-116; assay: Induction of apoptosis in human HCT-116 cells assessed as necrotic cells at 1 uM measured after 72 hrs by annexin V/FITC and PI staining based flow cytometry analysis (reference value: 0.16%); format: functional
[11] = system: HCT-116; assay: Synergistic antiproliferative activity against human HCT-116 cells assessed as combination index at 4 uM measured after 72 hrs in presence of 1.25 nM of SN-38 by CCK-8 method; format: functional
[12] = target: T1, Protein cereblon/Poly [ADP-ribose] polymerase 1; assay: PROTAC activity at CRBN/PARP1 in human HCT-116 cells assessed as degradation of PARP1 at upto 10 uM measured after 24 hrs relative to control; format: cell-based
Target sequence in this assay (P09874 2-1014 limits assumed): as the sequence (P09874 2-1014 limits assumed) above
Target sequence in this assay (Q96SW2 whole entry partner): as the sequence (Q96SW2 whole entry, looked up) above

[13] = target: T1, Protein cereblon/Poly [ADP-ribose] polymerase 1; assay: PROTAC activity at CRBN/PARP1 in human HCT-116 cells assessed as decrease in PARP1 level at 1 uM measured after 4 hrs; format: cell-based
Target sequence in this assay (P09874 2-1014 limits assumed): as the sequence (P09874 2-1014 limits assumed) above
Target sequence in this assay (Q96SW2 whole entry partner): as the sequence (Q96SW2 whole entry, looked up) above

[14] = system: HCT-116; assay: Downregulation of […] level in human HCT-116 cells at 1 uM in presence of SN-38 by Western blot analysis; format: functional, cell-based
[15] = Potency index, ratio of SK-575 IC50 to test compound IC50 for cytotoxicity against human LoVo cells assessed as inhibition of cell growth measured after 72 hrs by CCK-8 method; format: functional
[16] = target: T1, Protein cereblon/Poly [ADP-ribose] polymerase 1; assay: PROTAC activity at CRBN/PARP1 in human HCT-116 cells assessed as maximum degradation of PARP1 relative to control; format: cell-based
Target sequence in this assay (P09874 2-1014 limits assumed): as the sequence (P09874 2-1014 limits assumed) above
Target sequence in this assay (Q96SW2 whole entry partner): as the sequence (Q96SW2 whole entry, looked up) above

[17] = system: HCT-116; assay: Synergistic antiproliferative activity against human HCT-116 cells assessed as combination index at 0.5 uM measured after 72 hrs in presence of 1.25 nM of SN-38 by CCK-8 method; format: functional
[18] = target: T1, Protein cereblon/Poly [ADP-ribose] polymerase 1; assay: PROTAC activity at CRBN/PARP1 in human RKO cells assessed as degradation of PARP1 measured after 24 hrs; format: cell-based
Target sequence in this assay (P09874 whole entry): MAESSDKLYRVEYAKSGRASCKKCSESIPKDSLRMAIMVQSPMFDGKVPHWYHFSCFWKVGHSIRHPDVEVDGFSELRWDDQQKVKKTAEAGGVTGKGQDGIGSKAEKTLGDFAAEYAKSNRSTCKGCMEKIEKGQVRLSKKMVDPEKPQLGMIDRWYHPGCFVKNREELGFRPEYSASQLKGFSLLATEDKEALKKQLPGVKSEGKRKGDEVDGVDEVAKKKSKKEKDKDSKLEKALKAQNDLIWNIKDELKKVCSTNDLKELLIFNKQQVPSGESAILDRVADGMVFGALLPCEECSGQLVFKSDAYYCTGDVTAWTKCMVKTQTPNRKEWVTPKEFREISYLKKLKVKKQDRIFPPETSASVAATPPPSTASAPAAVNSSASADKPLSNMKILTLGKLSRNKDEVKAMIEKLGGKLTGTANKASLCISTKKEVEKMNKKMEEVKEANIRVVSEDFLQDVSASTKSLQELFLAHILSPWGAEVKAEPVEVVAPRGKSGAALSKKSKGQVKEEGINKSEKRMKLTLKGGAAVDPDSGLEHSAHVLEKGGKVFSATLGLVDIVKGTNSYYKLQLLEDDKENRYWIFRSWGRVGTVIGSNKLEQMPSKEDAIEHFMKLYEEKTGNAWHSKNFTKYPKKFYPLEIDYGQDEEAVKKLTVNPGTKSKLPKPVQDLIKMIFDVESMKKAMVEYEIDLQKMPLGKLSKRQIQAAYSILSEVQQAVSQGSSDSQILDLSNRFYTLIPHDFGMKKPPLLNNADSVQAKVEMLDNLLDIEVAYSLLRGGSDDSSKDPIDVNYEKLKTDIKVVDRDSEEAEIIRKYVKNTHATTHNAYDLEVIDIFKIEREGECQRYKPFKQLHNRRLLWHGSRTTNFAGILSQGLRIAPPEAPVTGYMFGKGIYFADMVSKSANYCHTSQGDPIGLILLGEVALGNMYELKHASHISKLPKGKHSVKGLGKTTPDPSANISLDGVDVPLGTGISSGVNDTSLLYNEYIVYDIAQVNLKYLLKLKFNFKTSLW
Target sequence in this assay (Q96SW2 whole entry): as the sequence (Q96SW2 whole entry, looked up) above

[19] = system: HCT-116; assay: Synergistic antiproliferative activity against human HCT-116 cells assessed as combination index at 4 uM measured after 72 hrs in presence of 0.625 nM of SN-38 by CCK-8 method; format: functional
[20] = Cytotoxicity against HEK293T cells assessed as inhibition of cell growth measured after 72 hrs by CCK-8 method; format: toxicity, cell-based, HEK-293T; conditions: human
[21] = system: HCT-116; assay: Synergistic antiproliferative activity against human HCT-116 cells assessed as combination index at 4 uM measured after 72 hrs in presence of 10 nM of SN-38 by CCK-8 method; format: functional
[22] = target: T1, Protein cereblon/Poly [ADP-ribose] polymerase 1; assay: PROTAC activity at CRBN/PARP1 in human HCT-116 cells assessed as degradation of PARP1 at 1 uM in presence of thalidomide; format: cell-based
Target sequence in this assay (P09874 2-1014 limits assumed): as the sequence (P09874 2-1014 limits assumed) above
Target sequence in this assay (Q96SW2 whole entry partner): as the sequence (Q96SW2 whole entry, looked up) above

[23] = system: HCT-116; assay: Downregulation of CDC25 level in human HCT-116 cells at 1 uM in presence of SN-38 by KEGG enrichment analysis; format: functional, cell-based
[24] = system: HCT-116; assay: Upregulation of ATP5PD level in human HCT-116 cells at 1 uM in presence of SN-38 by KEGG enrichment analysis; format: functional, cell-based
[25] = system: HCT-116; assay: Synergistic antiproliferative activity against human HCT-116 cells assessed as combination index at 1 uM measured after 72 hrs in presence of 2.5 nM of SN-38 by CCK-8 method; format: functional
[26] = system: HCT-116; assay: Synergistic antiproliferative activity against human HCT-116 cells assessed as combination index at 0.5 uM measured after 72 hrs in presence of 2.5 nM of SN-38 by CCK-8 method; format: functional

Emax [5]: 84.8%
Activity [6]: inactive
Emax [12]: 96.5%
Activity [13]: Active
Emax [16]: 86.2%
DC50 [18]: 0.161 µM
Activity [22]: inactive
SMILES: NC(=O)c1cccc2cn(-c3ccc([C@@H]4CCCN(CCC5CCN(CCC6CCN(CC7CCN(c8ccc9c(c8)C(=O)N(C8CCC(=O)NC8=O)C9=O)CC7)CC6)CC5)C4)cc3)nc12 (stereo partly specified)
Activity [1]: inactive
CI [2]: 0.967
CI [3]: 1.003
CI [4]: 0.698
viability at 1 µM [7]: 83.6%
Activity [8]: 4.03%
IC50 at 72 h [9]: 8.29 µM
Activity [10]: 2.01%
CI [11]: 0.574
Activity [14]: Active
Ratio IC50 [15]: <3.5
CI [17]: 0.932
CI [19]: 0.567
IC50 at 72 h [20]: 4.13 µM
CI [21]: 0.538
Activity [23]: Active
Activity [24]: Active
CI [25]: 0.823
CI [26]: 0.879

— ChEMBL document CHEMBL6120985, “Discovery of a potent PARP1 PROTAC as a chemosensitizer for the treatment of colorectal cancer” (Eur J Med Chem, 2025)
